Values quoted from earlier work as cited in patent US20210260012A1, “COMPOSITIONS FOR THE PREVENTION AND TREATMENT OF CUTANEOUS AFFECTIONS” (I.C.F. SRL, priority 2018, published 2021).

Tested on: biofilms from E. coli
Conditions: at high concentrations

CC(=O)NC(CS)C(=O)O (stereo not drawn) [Acetylcysteine, α-acetamido-β-mercaptopropanoic acid]
reduction in the mass of biofilms: up to 55%
